Measured values taken from patent publication US20070016983A1, “Controlling gene expressions in plastids” (Icon Genetics AG, priority 2003, published 2007).

Test system: lac repressor/operator system controlling plastome-encoded smGFP
Test: Chemical induction of plastid GFP transgene expression by spraying a transplastomic tobacco plant with IPTG (Western blot)
Type: in vivo, Nicotiana tabacum
Protocol: FIG. 2: Immunological detection of GFP expression after induction with IPTG. • A) Plastid transformant 557-1 containing the smGFP gene under the control of the 16S-lac3 promoter and the lacl gene (transformation vector plCF1050-1), was analyzed for its GFP content by Western blotting. For the uninduced sample (−), a young leaf of a ca. 7 cm high plant was removed before spraying the plant with a 1 mM IPTG solution. For the induced sample (+), the next youngest leaf was cut four days after spraying. The amount of total soluble protein loaded on the gel is given on the top of the lanes. • B) Lower amounts of protein of the induced sample shown in A were loaded on the gel in order to allow quantification in comparison with the uninduced sample. In addition, protein from further leaves that were cut seven days after spraying was loaded. Leaf a was the next youngest leaf, leaf b an older leaf. Compared with a GFP standard, the amount of GFP in the first lane is in the range of 15 to 20 ng.
Tobacco seeds (Nicotiana tabacum cv. petite havana) were surface sterilized (1 min in 70% ethanol, 10 min in 5% Dimanin C, Bayer, Leverkusenr, Germany), washed 3 times for 10 min in sterile H2O and put on SCN-medium (Dovzhenko et al., 1998). Plants were grown at 25° C. in a 16 h light/8 h dark cycle (0.5-1 W/m^2 Osram L85W/25 Universal-White fluorescent lamps). Protoplast isolation was made according to Dovzhenko et al. (1998). Transformation using polyethyleneglycol (PEG) was performed as described in Koop et al. (1996), and alginate embedding according to Dovzhenko et al. (1998). After one week of culture in liquid medium, cells were transferred to agar-solidified RMOP-medium (Svab et al., 1990) containing 25 μg/ml kanamycin to select for transformants. Green regenerates were retrieved after […] and transferred to individual plates. In order to achieve homoplastomy, the individual lines were subjected to repeated cycles of shoot generation by cutting small leaf pieces which form new regenerates on RMOP-medium with 15 μg/ml kanamycin. Rooting of selected regenerates was done on SCN-medium containing 15 μg/ml spectinomycin. […]
A transplastomic plant generated with plCF10501 was grown on SCN-medium to a height of ca. 7 cm. […] After four and seven days, respectively, the next youngest leaf was cut off and also analyzed. […] Protein quantification was made according to the Bradford method with RotiQuant solution. Proteins were separated on a 15% polyacrylamide gel and transferred to nitrocellulose membrane, and GFP was detected immunologically using the ECL method (primary antibody directed against a recombinant protein corresponding to GFP from A. victoria; Santa Cruz Biotechnology).

Compound: CC(C)S[C@@H]1O[C@H](CO)[C@H](O)[C@H](O)[C@H]1O [IPTG, isopropyl-D-thiogalactopyranoside]
- amount of GFP in the first lane compared with a GFP standard (FIG. 2B, first lane, Western blot of plastid transformant 557-1 sprayed with 1 mM IPTG): 15 to 20 ng
- green fluorescence of leaves (after spraying with 1 mM IPTG, leaves irradiated with ultraviolet/blue light): increase in green fluorescence
- amount of GFP in the leaves (plant sprayed with ca. 1 ml of 1 mM IPTG, leaf cut seven days after spraying, Western blot, FIG. 2): a further increase could be observed
- increase of the amount of GFP in the leaves (plant sprayed with ca. 1 ml of 1 mM IPTG, next youngest leaf cut four days after spraying vs leaf cut before spraying, Western blot, FIG. 2): about 10 fold
